In patent US20240041754A1, “NOVEL SACCHAROMYCES CEREVISIAE STRAIN AND USE THEREOF” (LG HOUSEHOLD & HEALTH CARE LTD., priority 2020, published 2024):

How the values were obtained:
[1] = tested on: Human keratinocytes (HaCaT); assay: Hyaluronic acid synthesis enhancement, Quantikine ELISA Hyaluronan; format: cell-based; settings: 1 ppm, 72 hours, vs negative control (DMEM containing 0% serum)
Experimental: Human keratinocytes (HaCaT) were treated with each sample for 72 hours. Thereafter, a hyaluronic acid synthesis rate was derived by measuring hyaluronic acid using R&D systems' Quantikine ELISA Hyaluronan. The skin moisturizing ability of the sample was expressed as an increase rate (%) of hyaluronic acid synthesis, which was calculated and quantified in comparison to a negative control group (treated with DMEM containing 0% serum).
The calculation formula of the increase rate of hyaluronic acid synthesis, each sample, and the results thereof are shown in Table 6 below.
Increase rate of hyaluronic acid synthesis (%)=(Hyaluronic acid synthesis rate of Sample−Hyaluronic acid synthesis rate of Negative control)/Hyaluronic acid synthesis rate of Negative control

Human dermal fibroblasts = assay: Collagen synthesis enhancement, procollagen type I C-peptide (PIP) EIA kit; format: cell-based; settings: 10 ppb, 48 hours, vs negative control (DMEM containing 0% serum)
Experimental: Human dermal fibroblasts were treated with each sample for 48 hours. Thereafter, a collagen synthesis rate was measured by detecting collagen using a method of a procollagen type I C-peptide (PIP) EIA kit. The collagen synthesis efficiency of the sample was expressed as an increase rate (%) of collagen synthesis, which was calculated and quantified in comparison to a negative control group (DMEM containing 0% serum).
Increase rate of collagen synthesis (%)=(Collagen synthesis rate of Sample−Collagen synthesis rate of Negative control)/Collagen synthesis rate of Negative control

Compound	Increase rate of hyaluronic acid synthesis [1]	Increase rate of collagen synthesis (Human dermal fibroblasts)
CC1=C(/C=C/C(C)=C/C=C/C(C)=C/C(=O)O)C(C)(C)CCC1 [Retinoic acid]	13.8%	
TGF-β		15.2%
